Patent US7235267B1, “Brain cell or nerve cell-protecting agents comprising medicinal ginseng” (priority 1999, dated 2007)

Columns and labels:
[1] = system: SH-SP rats with MCA permanent occlusion; assay: TTC staining of cerebral infarct lesion 24 hours after MCA permanent occlusion; format: in vivo, rat
[2] = system: Wistar rats with spinal cord injury; assay: Spinal cord injury model (20 g compression on lower thoracic cord for 20 minutes); format: in vivo, rat; conditions: for paralysis or paraplegia of both lower limbs: Solu-Medrol intravenous 30 mg/kg on the same schedule, 30 mg/kg
Source text: The present inventors have investigated the effects of repetitive or continuous intravenous administration of ginsenoside Rb1 using rats with spinal cord injury and the effects were compared with those of repetitive or continuous intravenous administration of a crude saponin fraction of medicinal ginseng. If pressure is loaded on certain spinal segments such as the lower thoracic cord, not only nerve cells (neurons) in the gray matter of the same region but also fiber tracts or pathways in the white matter of the same region are damaged. The damages to the fiber tracts or pathways of the white matter are further developed to the distal portions (caudal portions) as well as causing the secondary degeneration of the origins of the fiber tract or pathways, namely the upper nerve cell bodies (i.e. origins) which project fibers (nerve processes) to the fiber tracts or pathways. As a result, the damages to the fiber tracts or pathways of the white matter in the lower thoracic cord, which received compression loading, induce the secondary degeneration of the origins (nerve cell bodies) sending fibers (also termed nerve processes or axons) to the fiber tracts or pathways as well as the secondary degeneration of fiber tracts located distal to the lower thoracic cord (i.e. lumbar cord and sacral cord) to cause paraplegia of both limbs. Further, since the innervation from the brain regions proximal to the lumbar cord and sacral cord is cut off due to damage to the lower thoracic cord, the secondary degeneration of nerve cells in the gray matters of the lumbar cord and sacral cord is further induced, as a result, paraplegia of the limbs can not be recovered. For that model of the spinal cord injury, the present inventors have used male Wistar rats (body weight about 300 g) loaded with 20 g of compression on the lower thoracic cord for 20 minutes.
Under inhalation anesthesia by a mixture of nitrous oxide and halothane, the rats were loaded with 20 g of compression on the lower thoracic cord for 20 minutes. After more than 30 minutes passed, ginsenoside Rb1 dissolved in physiological saline was injected once into the left femoral vein (12 μg or 60 μg), thereafter continuous or repetitive intravenous administration of ginsenoside Rb1 was performed for 7 days by using an Alza osmotic minipump (12 μg/day or 60 μ/day). Control animals and sham-operated animals were administered with the same amount of physiological saline (vehicle) alone. The open field locomotor scores [Basso, Bettie and Bresnakan (BBB) scores] were measured in each animal before loading spinal cord injury, on the day of spinal cord injury and from 1st day to 7th day after the spinal cord injury for use as an index of motor functions (Basso D. M. et al., J. Neurotrauma, 13, 343-359, 1996). BBB scores of the sham-operated rats (normal rats) were 20-21.
Under inhalation anesthesia by a mixture of nitrous oxide and halothane, the rats were loaded with 20 g of compression on the lower thoracic cord for 20 minutes. More than 30 minutes later, the crude saponin fraction dissolved in physiological saline was infused once into the left femoral vein (870 μg), thereafter continuous intravenous administration of the crude saponin fraction was performed for 7 days by using an Alza osmotic minipump (870 μg/day). Control animals with spinal cord injuries were administered with the same amount of physiological saline (vehicle) alone. […] These figures are photographs in place of drawings.
Under inhalation anesthesia by a mixture of nitrous oxide and halothane, wistar rats (body weight about 300 g) were loaded with 20 g of compression on the lower thoracic cord for 20 minutes. After they were awakened from anesthesia, the rats with paraplegia in both hindlimbs were allowed to stay for 1 hour and 40 minutes in the cage. […]

SMILES | cerebral infarct lesion (TTC staining) ([1]; dihydroginsenoside Rb1 intravenous 6 μg/day for 24 hours after MCA permanent occlusion) | volume of cerebral infarct lesion relative to non-administered group ([1]; intravenous low doses) | experimental animals died within 7 days after spinal cord injuries ([2]; Solu-Medrol 30 mg/kg, 4 out of 10 rats) | paralysis or paraplegia of both lower limbs [2] | paralysis or paraplegia of both lower limbs ([2]; listed as Solu-Medol) | healing of the operative dorsal wounds / ill effects ([2]; rat, in vivo)
CC(C)CCC[C@](C)(O[C@@H]1O[C@H](CO[C@@H]2O[C@H](CO)[C@@H](O)[C@H](O)[C@H]2O)[C@@H](O)[C@H](O)[C@H]1O)[C@H]1CC[C@]2(C)[C@@H]1[C@H](O)C[C@@H]1[C@@]3(C)CC[C@H](O[C@@H]4O[C@H](CO)[C@@H](O)[C@H](O)[C@H]4O[C@@H]4O[C@H](CO)[C@@H](O)[C@H](O)[C@H]4O)C(C)(C)[C@@H]3CC[C@]12C [dihydroginsenoside Rb1] | markedly reduced | about ¼ | – | – | – | –
C[C@H]1C[C@@H]2[C@H]([C@@H](O)C[C@@]3(C)[C@H]2CC[C@]3(O)C(=O)COC(=O)CCC(=O)[O-])[C@@]2(C)C=CC(=O)C=C12.[Na+] [reference compound] | – | – | about 40% | no significant ameliorating effects | could not ameliorate | obviously delayed
